This is an account of results in publication PMC8678048 (Frontiers in Microbiology, 2021).

Positions of bridges follow the written chain, without caps; N, C: chain ends. Residues, ends and D or L forms follow the SMILES beside them.

For this experiment, the target named is ASFV pS273R protease (African swine fever virus, UniProt Q00946). In kind it is biochemical.
ASFV pS273R protease, sequence (Q00946 whole entry, looked up): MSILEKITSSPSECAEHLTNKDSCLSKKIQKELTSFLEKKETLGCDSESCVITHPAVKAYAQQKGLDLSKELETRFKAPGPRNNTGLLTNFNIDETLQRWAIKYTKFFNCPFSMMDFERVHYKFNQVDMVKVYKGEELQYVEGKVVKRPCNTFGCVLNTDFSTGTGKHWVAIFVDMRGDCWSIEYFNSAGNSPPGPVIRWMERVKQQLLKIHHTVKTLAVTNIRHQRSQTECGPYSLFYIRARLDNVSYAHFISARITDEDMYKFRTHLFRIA

Regarding `CC[C@H](C)[C@@H]1NC(=O)CNC(=O)[C@H](CO)NC(=O)[C@@H]2CSSC[C@@H](C(=O)N[C@@H](Cc3ccc(O)cc3)C(=O)O)NC(=O)[C@H](CCCCN)NC(=O)[C@@H]3CSSC[C@H](NC(=O)[C@H](CCC(N)=O)NC(=O)[C@H](Cc4ccc(O)cc4)NC(=O)[C@H](CCC(N)=O)NC(=O)[C@H](CC(N)=O)NC(=O)[C@H](Cc4ccccc4)NC(=O)[C@@H]4CCCN4C(=O)[C@@H](NC(=O)CNC(=O)[C@H](Cc4ccc(O)cc4)NC(=O)CN)CSSC[C@H](NC(=O)[C@H](Cc4ccc(O)cc4)NC(=O)CNC(=O)CNC(=O)[C@H](CCCCN)NC(=O)[C@H](Cc4ccc(O)cc4)NC(=O)CNC(=O)[C@H](CCCNC(=N)N)NC1=O)C(=O)N[C@@H](CCCCN)C(=O)NCC(=O)N[C@@H]([C@@H](C)O)C(=O)N[C@@H](Cc1ccccc1)C(=O)N[C@@H](CCCCN)C(=O)N[C@@H](CCC(N)=O)C(=O)N[C@@H]([C@@H](C)O)C(=O)N3)C(=O)N[C@@H](Cc1c[nH]cn1)C(=O)N[C@@H](CO)C(=O)N[C@@H](Cc1c[nH]cn1)C(=O)N2` [OPTX-1] (H-GYGCPFNQYQCHSHCSGIRGYKGGYCKGTFKQTCKCY-OH; disulfide 4-26, 11-34, 15-36 (inferred); N-terminus and C-terminus assumed), the “mode of inhibition of pS273R protease” value was “competitive inhibitor of the pS273R protease”.
